Legend:
Assay in all cases: relative viability (nuclei count vs DMSO), 5 days (fraction); higher = more cells survive
BEN = tested on: BEN
Procedure, shortened: (§1)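 Five library-drug doses in √10 steps were combined with a fixed anchor-drug dose, or a single drug was given alone, by pin tool to lung cancer cell lines in 1536-well plates the day after seeding. Nuclei were stained and counted after 5 days. Relative viability is the nuclei count in treated wells over that in vehicle wells, taken as the median of duplicate plates.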

ChaGo-K-1 = tested on: ChaGo-K-1
Procedure, shortened: as §1

HCC-78 = tested on: HCC-78
Procedure, shortened: as §1

LC-2-ad = tested on: LC-2-ad
Procedure, shortened: as §1

LCLC-97TM1 = tested on: LCLC-97TM1
Procedure, shortened: as §1

LK-2 = tested on: LK-2
Procedure, shortened: as §1

LU99A = tested on: LU99A
Procedure, shortened: as §1

LXF-289 = tested on: LXF-289
Procedure, shortened: as §1

NCI-H1355 = tested on: NCI-H1355
Procedure, shortened: as §1

NCI-H1651 = tested on: NCI-H1651
Procedure, shortened: as §1

NCI-H1666 = tested on: NCI-H1666
Procedure, shortened: as §1

NCI-H1944 = tested on: NCI-H1944
Procedure, shortened: as §1

NCI-H1975 = tested on: NCI-H1975
Procedure, shortened: as §1

NCI-H2087 = tested on: NCI-H2087
Procedure, shortened: as §1

NCI-H2342 = tested on: NCI-H2342
Procedure, shortened: as §1

NCI-H358 = tested on: NCI-H358
Procedure, shortened: as §1

NCI-H596 = tested on: NCI-H596
Procedure, shortened: as §1

NCI-H650 = tested on: NCI-H650
Procedure, shortened: as §1

NCI-H661 = tested on: NCI-H661
Procedure, shortened: as §1

NCI-H838 = tested on: NCI-H838
Procedure, shortened: as §1

PC-3 [JPC-3] = tested on: PC-3 [JPC-3]
Procedure, shortened: as §1

SK-MES-1 = tested on: SK-MES-1
Procedure, shortened: as §1

For CC(=O)O[C@@]12CO[C@@H]1C[C@H](O)[C@@]1(C)C(=O)[C@H](O)C3=C(C)[C@@H](OC(=O)[C@H](O)[C@@H](NC(=O)OC(C)(C)C)c4ccccc4)C[C@@](O)([C@@H](OC(=O)c4ccccc4)[C@H]21)C3(C)C [Docetaxel] + O=C(CCCCCCC(=O)Nc1ccccc1)NO [Vorinostat] (partner 1 µM), the relative viability (BEN; first compound 0.0002 µM) was 0.526, the relative viability (BEN; first compound 0.000632 µM) was 0.526 and the relative viability (BEN; first compound 0.002 µM) was 0.337. For the same compound, the relative viability (BEN; first compound 0.006325 µM) was 0.373, the relative viability (BEN; first compound 0.02 µM) was 0.299 and the relative viability (ChaGo-K-1; first compound 0.0002 µM) was 0.733. It also gave a relative viability (ChaGo-K-1; first compound 0.000632 µM) of 0.591, a relative viability (ChaGo-K-1; first compound 0.002 µM) of 0.335 and a relative viability (ChaGo-K-1; first compound 0.006325 µM) of 0.282. For the same compound, the relative viability (ChaGo-K-1; first compound 0.02 µM) was 0.193, the relative viability (HCC-78; first compound 0.0002 µM) was 0.473 and the relative viability (HCC-78; first compound 0.000632 µM) was 0.374. The relative viability (HCC-78; first compound 0.002 µM) was 0.261, the relative viability (HCC-78; first compound 0.006325 µM) was 0.31 and the relative viability (HCC-78; first compound 0.02 µM) was 0.313. The relative viability (LC-2-ad; first compound 0.0002 µM) was 0.472, the relative viability (LC-2-ad; first compound 0.000632 µM) was 0.275 and the relative viability (LC-2-ad; first compound 0.002 µM) was 0.209. For the same compound, the relative viability (LC-2-ad; first compound 0.006325 µM) was 0.227, the relative viability (LC-2-ad; first compound 0.02 µM) was 0.152 and the relative viability (LCLC-97TM1; first compound 0.0002 µM) was 0.364. The relative viability (LCLC-97TM1; first compound 0.000632 µM) was 0.187, the relative viability (LCLC-97TM1; first compound 0.002 µM) was 0.116 and the relative viability (LCLC-97TM1; first compound 0.006325 µM) was 0.104. It also gave a relative viability (LCLC-97TM1; first compound 0.02 µM) of 0.0624, a relative viability (LK-2; first compound 0.0002 µM) of 0.313 and a relative viability (LK-2; first compound 0.000632 µM) of 0.217. For the same compound, the relative viability (LK-2; first compound 0.002 µM) was 0.15, the relative viability (LK-2; first compound 0.006325 µM) was 0.183 and the relative viability (LK-2; first compound 0.02 µM) was 0.152. The relative viability (LU99A; first compound 0.0002 µM) was 0.529, the relative viability (LU99A; first compound 0.000632 µM) was 0.373 and the relative viability (LU99A; first compound 0.002 µM) was 0.278. For the same compound, the relative viability (LU99A; first compound 0.006325 µM) was 0.269, the relative viability (LU99A; first compound 0.02 µM) was 0.173 and the relative viability (LXF-289; first compound 0.0002 µM) was 0.797. The relative viability (LXF-289; first compound 0.000632 µM) was 0.392, the relative viability (LXF-289; first compound 0.002 µM) was 0.168 and the relative viability (LXF-289; first compound 0.006325 µM) was 0.19. It also gave a relative viability (LXF-289; first compound 0.02 µM) of 0.118, a relative viability (NCI-H1355; first compound 0.0002 µM) of 0.631 and a relative viability (NCI-H1355; first compound 0.000632 µM) of 0.626. The relative viability (NCI-H1355; first compound 0.002 µM) was 0.382, the relative viability (NCI-H1355; first compound 0.006325 µM) was 0.244 and the relative viability (NCI-H1355; first compound 0.02 µM) was 0.176. For the same compound, the relative viability (NCI-H1651; first compound 0.0002 µM) was 0.41, the relative viability (NCI-H1651; first compound 0.000632 µM) was 0.582 and the relative viability (NCI-H1651; first compound 0.002 µM) was 0.463. It also gave a relative viability (NCI-H1651; first compound 0.006325 µM) of 0.159, a relative viability (NCI-H1666; first compound 0.0002 µM) of 0.893 and a relative viability (NCI-H1666; first compound 0.000632 µM) of 0.992. For the same compound, the relative viability (NCI-H1666; first compound 0.002 µM) was 0.681, the relative viability (NCI-H1666; first compound 0.006325 µM) was 0.706 and the relative viability (NCI-H1666; first compound 0.02 µM) was 0.47. The relative viability (NCI-H1944; first compound 0.0002 µM) was 0.604, the relative viability (NCI-H1944; first compound 0.000632 µM) was 0.538 and the relative viability (NCI-H1944; first compound 0.002 µM) was 0.423. For the same compound, the relative viability (NCI-H1944; first compound 0.006325 µM) was 0.223, the relative viability (NCI-H1944; first compound 0.02 µM) was 0.172 and the relative viability (NCI-H1975; first compound 0.0002 µM) was 0.723. It also gave a relative viability (NCI-H1975; first compound 0.000632 µM) of 0.378, a relative viability (NCI-H1975; first compound 0.002 µM) of 0.283 and a relative viability (NCI-H1975; first compound 0.006325 µM) of 0.232. It also gave a relative viability (NCI-H1975; first compound 0.02 µM) of 0.161, a relative viability (NCI-H2087; first compound 0.0002 µM) of 0.663 and a relative viability (NCI-H2087; first compound 0.000632 µM) of 0.203. For the same compound, the relative viability (NCI-H2087; first compound 0.002 µM) was 0.139, the relative viability (NCI-H2087; first compound 0.006325 µM) was 0.115 and the relative viability (NCI-H2087; first compound 0.02 µM) was 0.103. It also gave a relative viability (NCI-H2342; first compound 0.0002 µM) of 0.625, a relative viability (NCI-H2342; first compound 0.000632 µM) of 0.662 and a relative viability (NCI-H2342; first compound 0.002 µM) of 0.569. The relative viability (NCI-H2342; first compound 0.006325 µM) was 0.445, the relative viability (NCI-H2342; first compound 0.02 µM) was 0.475 and the relative viability (NCI-H358; first compound 0.0002 µM) was 0.625. For the same compound, the relative viability (NCI-H358; first compound 0.000632 µM) was 0.399, the relative viability (NCI-H358; first compound 0.002 µM) was 0.109 and the relative viability (NCI-H358; first compound 0.006325 µM) was 0.112. The relative viability (NCI-H358; first compound 0.02 µM) was 0.0606, the relative viability (NCI-H596; first compound 0.0002 µM) was 0.639 and the relative viability (NCI-H596; first compound 0.000632 µM) was 0.46. The relative viability (NCI-H596; first compound 0.002 µM) was 0.393, the relative viability (NCI-H596; first compound 0.006325 µM) was 0.307 and the relative viability (NCI-H596; first compound 0.02 µM) was 0.144. The relative viability (NCI-H650; first compound 0.0002 µM) was 0.389, the relative viability (NCI-H650; first compound 0.000632 µM) was 0.326 and the relative viability (NCI-H650; first compound 0.002 µM) was 0.262. The relative viability (NCI-H650; first compound 0.006325 µM) was 0.2, the relative viability (NCI-H650; first compound 0.02 µM) was 0.171 and the relative viability (NCI-H661; first compound 0.0002 µM) was 0.777. For the same compound, the relative viability (NCI-H661; first compound 0.000632 µM) was 0.856, the relative viability (NCI-H661; first compound 0.002 µM) was 0.728 and the relative viability (NCI-H661; first compound 0.006325 µM) was 0.493. It also gave a relative viability (NCI-H661; first compound 0.02 µM) of 0.373, a relative viability (NCI-H838; first compound 0.0002 µM) of 0.623 and a relative viability (NCI-H838; first compound 0.000632 µM) of 0.385. For the same compound, the relative viability (NCI-H838; first compound 0.002 µM) was 0.328, the relative viability (NCI-H838; first compound 0.006325 µM) was 0.208 and the relative viability (NCI-H838; first compound 0.02 µM) was 0.16. The relative viability (PC-3 [JPC-3]; first compound 0.0002 µM) was 0.673, the relative viability (PC-3 [JPC-3]; first compound 0.000632 µM) was 0.58 and the relative viability (PC-3 [JPC-3]; first compound 0.002 µM) was 0.395. The relative viability (PC-3 [JPC-3]; first compound 0.006325 µM) was 0.343, the relative viability (PC-3 [JPC-3]; first compound 0.02 µM) was 0.21 and the relative viability (SK-MES-1; first compound 0.0002 µM) was 1.15. For the same compound, the relative viability (SK-MES-1; first compound 0.000632 µM) was 0.925, the relative viability (SK-MES-1; first compound 0.002 µM) was 0.695 and the relative viability (SK-MES-1; first compound 0.006325 µM) was 0.267. For the same compound, the relative viability (SK-MES-1; first compound 0.02 µM) was 0.212.

Source: the supplement of paper PMC10307832
